Source: US7002015B2, “3-Thia-4-arylquinolin-2-one derivatives as smooth muscle relaxants” (Bristol-Myers Squibb Company, priority 2003, dated 2006)

What was measured:
Assay type in all cases: cell-based
[1] = system: rabbit corpus cavernosum tissue; experiment: Rabbit corpus cavernosum strips: relaxation of phenylephrine-induced force; conditions: Oryctolagus cuniculus, inhibition of phenylephrine (3 μM)-induced force as compared to vehicle control, read-out: % Inhibition of force (RCC strips)
Experimental: The ability of the compounds of the invention to relax rabbit corpus cavernosum tissue as a model for the treatment of erectile dysfunction is described as follows. New Zealand white rabbits (3.4–3.7 kg) were euthanized by sodium pentobarbital (100 mg/kg) overdose. The penis from each animal was rapidly removed and immersed in a cold oxygenated modified Krebs Henseleit bicarbonate buffer. The penis' outer tunica was removed and the corpus cavernosum smooth muscle obtained and cut into strips approximately 3–5 mm long. The strips were suspended in tissue baths containing physiological salt solution (see above), and allowed to equilibrate for at least one hour under resting tension of 1.0 gram. Isometric force was measured as described above. Tissue strips were stimulated with the α-agonist phenylephrine (3 μM) and allowed to reach a steady level of force prior to the addition of test compounds. The results are expressed as the percentage inhibition of phenylephrine-induced force as compared to vehicle control.

[2] = system: cloned mammalian (mSlo or hSlo) BK; experiment: Assay for BK channel openers: two-electrode voltage clamp of BK-mediated outward current in Xenopus oocytes; conditions: percent of control IBTX-sensitive current at +140 mV; 20 μM (or as otherwise indicated); 5–10 oocytes
Experimental: The ability of the compounds of the invention to open BK channels and increase whole-cell outward (K^+) BK-mediated currents was assessed under voltage-clamp conditions by determining their ability to increase cloned mammalian (mSlo or hSlo) BK-mediated outward current heterologously expressed in Xenopus oocytes [Butler, A., et al., Science 1993, 261, 221–224; Dworetzky, S. I., et al., Mol. Brain Res. 1994, 27, 189–193; Gribkoff, V. K., et al., Mol. Pharmacol. 1996, 50, 206–217]. The two BK constructs employed represent nearly structurally identical homologous proteins, and have proven to be pharmacologically indistinguishable in our tests. To isolate BK current from native (background, non-BK) current, the specific and potent BK channel-blocking toxin iberiotoxin (IBTX) [Galvez, A., et al., J. Biol. Chem. 1990, 265, 11083–11090] was employed at a supramaximal concentration, e.g., 50–100 nanomolar (“nM”). The relative contribution of BK channel-mediated current to total outward current was determined by subtraction of the current remaining in the presence of IBTX (non-BK current) from the current profiles obtained in all other experimental conditions (control, drug, and wash) [Gribkoff, V. K. et al., Mol. Pharmacol. 1996, 50, 206–217]. […] All compounds were tested in 5–10 oocytes and are reported at the indicated concentration of 20 micromolar (“μM”) (or as otherwise indicated); the effect of the selected compounds of the invention on BK current was expressed as the percent of control IBTX-sensitive current at a single transmembrane voltage (+140 mV) and is listed in Table 1. Recordings were accomplished using standard two-electrode voltage clamp techniques [Stuhmer, W., et al., Methods in Enzymology, 1992, 207, 319–339]; voltage-clamp protocols consisted of 500–750 milliseconds (“ms”) duration step depolarizations, from a holding potential of −60 mV, to a final voltage up to +140 mV in 20 mV steps. The experimental media (modified Barth's solution) consisted of millimolar (“mM”): NaCl (88), NaHCO3 (2.4), KCl (1.0), HEPES (10), MgSO4 (0.82), Ca(NO3)2 (0.33), CaCl2 (0.41); pH 7.5.

[3] = system: rat small intestine tissue; experiment: Rat small intestine (ileum) segments: inhibition of nifedipine-sensitive force; set-up: concentration or dose not given beside the values; conditions: integral of nifedipine-sensitive force pre- and 30 min post-compound
Description: The ability of the compounds of the invention to relax rat small intestine tissue as a model for the treatment of irritable bowel syndrome is described as follows. Male rats (Harlan, Sprague Dawley, 250–350 g) were sacrificed by decapitation. A portion of small intestine (ileum) was removed and the attached connective tissues and intestinal contents removed. The ileum was cut into segments of ≦1 cm in length. The segments were mounted longitudinally between fixed hooks in organ baths containing warm (37° C.) physiological salt solution (composition in mM: NaCl 118.4, KCl 4.7, KH2PO4 1.2, MgSO4 1.2, CaCl2 1.8, Glucose 10.1, NaHCO3 25; gassed with 95% O2/5% CO2, pH 7.4). A stable tension of ˜1.5 g was maintained in the tissue segments during the equilibration period of 45 minutes. Changes in muscle tension were measured with isometric force transducers (Grass, FT-03C) and recorded using AcqKnowledge data acquisition system (AcqKnowledge for MP100WS, Biopac Systems Inc., Goleta, Calif.). Compound or vehicle was added in the baths for 30 minutes. “Zero” active force was established at the end of the experiment using nifedipine (20 μM). The effects of compounds or vehicle on force was determined by measuring the integral of nifedipine-sensitive force (including resting tone and spontaneous contractions) pre- and 30 min post-compound (or vehicle) addition. Results are expressed as the percentage inhibition of force. DMSO vehicle inhibited force (integral) by −0.6±3.0% (n=25).

Row | SMILES | inhibition [1] [%] | % MaxiK opening* [2] [%] | % Inhibition of force (RSI strips) [3] [%]
1 | O=C(CCN1CCCC1)CSc1c(-c2cc(Cl)ccc2O)c2cc(C(F)(F)F)ccc2[nH]c1=O [Example 2, 4-(5-Chloro-2-hydroxy-phenyl)-3-(2-oxo-4-pyrrolidin-1-yl-butylsulfanyl)-6-trifluoromethyl-1H-quinolin-2-one] | 30 | 335 | 
2 | CN1CCN(CCC(=O)CSc2c(-c3cc(Cl)ccc3O)c3cc(C(F)(F)F)ccc3[nH]c2=O)CC1 [Example 3, 4-(5-Chloro-2-hydroxy-phenyl)-3-[4-(4-methyl-piperazin-1-yl)-2-oxo-butylsulfanyl]-6-trifluoromethyl-1H-quinolin-2-one] |  | 550 | 
3 | CN(C)C1CCN(C(=O)CSc2c(-c3cc(Cl)ccc3O)c3cc(C(F)(F)F)ccc3[nH]c2=O)CC1 [Example 5, 4-(5-Chloro-2-hydroxy-phenyl)-3-[2-(4-dimethylamino-piperidin-1-yl)-2-oxo-ethylsulfanyl]-6-trifluoromethyl-1H-quinolin-2-one] | 34.5 | 286 | 58.5
4 | O=C(CCN1CCCCC1)CSc1c(-c2cc(Cl)ccc2O)c2cc(C(F)(F)F)ccc2[nH]c1=O [Example 7, 4-(5-Chloro-2-hydroxyphenyl)-3-[[2-oxo-4-(1-piperidinyl)butyl]thio]-6(trifluoromethyl)-2(1H)-quinolinone] |  | 199 | 29
5 | O=C(CCN1CCN(CCO)CC1)CSc1c(-c2cc(Cl)ccc2O)c2cc(C(F)(F)F)ccc2[nH]c1=O [Example 21, 4-(5-Chloro-2-hydroxyphenyl)-3-[[4-[4-(2-hydroxyethyl)-1-piperazinyl]-2-oxobutyl]thio]-6-(trifluoromethyl)-2(1H)-quinolinone] |  | 241 | 
6 | O=C(CCN1CCC(O)CC1)CSc1c(-c2cc(Cl)ccc2O)c2cc(C(F)(F)F)ccc2[nH]c1=O [Example 30, 4-(5-Chloro-2-hydroxyphenyl)-3-[[4-(4-hydroxy-1-piperidinyl)-2-oxobutyl]thio]-6-(trifluoromethyl)-2(1H)-quinolinone] |  | 235 | 
7 | CN(C)CCCN(C)CCC(=O)CSc1c(-c2cc(Cl)ccc2O)c2cc(C(F)(F)F)ccc2[nH]c1=O [Example 35, 4-(5-Chloro-2-hydroxyphenyl)-3-[[4-[[3-(dimethylamino)propyl]methylamino]-2-oxobutyl]thio]-6-(trifluoromethyl)-2(1H)quinolinone] |  | 178 | 
8 | CC(=O)N1CCN(CCCC(=O)CSc2c(-c3cc(Cl)ccc3O)c3cc(C(F)(F)F)ccc3[nH]c2=O)CC1 [Example 63, 1-Acetyl-4-[5-[[4-(5-chloro-2-hydroxyphenyl)-1,2-dihydro-2-oxo-6-(trifluoromethyl)-3-quinolinyl]thio]-4-oxopentyl]piperazine] |  | 284 | 
9 | CC1CCCN(CCCC(=O)CSc2c(-c3cc(Cl)ccc3O)c3cc(C(F)(F)F)ccc3[nH]c2=O)C1 (stereo not drawn) [Example 65, 4-(5-Chloro-2-hydroxyphenyl)-3-[[5-(3-methyl-1-piperidinyl)-2-oxopentyl]thio]-6-(trifluoromethyl)-2(1H)-quinolinone] |  | 271 | 
10 | CC1CCN(CCCC(=O)CSc2c(-c3cc(Cl)ccc3O)c3cc(C(F)(F)F)ccc3[nH]c2=O)CC1 [Example 66, 4-(5-Chloro-2-hydroxyphenyl)-3-[[5-(4-methyl-1-piperidinyl)-2-oxopentyl]thio]-6-(trifluoromethyl)-2(1H)-quinolinone] |  | 213 | 
11 | CN1CCC(N(C)CCCC(=O)CSc2c(-c3cc(Cl)ccc3O)c3cc(C(F)(F)F)ccc3[nH]c2=O)C1 (stereo not drawn) [Example 68, 4-(5-chloro-2-hydroxyphenyl)-3-[[5-[methyl(1-methyl-3-pyrrolidinyl)amino]-2-oxopentyl]thio]-6-(trifluoromethyl)-2(1H)-quinolinone] |  | 226 | 
12 | O=C(CCCN1CCC(N2CCCCC2)CC1)CSc1c(-c2cc(Cl)ccc2O)c2cc(C(F)(F)F)ccc2[nH]c1=O [Example 72, 3-[(5-[1,4′-Bipiperidin]-1′-yl-2-oxopentyl)thio]-4-(5-chloro-2-hydroxyphenyl)-6-(trifluoromethyl)-2(1H)-quinolinone] |  | 298 | 
13 | CN1CCN(C(=O)CSc2c(-c3cc(Cl)ccc3O)c3cc(C(F)(F)F)ccc3[nH]c2=O)CC1 [Example 84, 1-[[[4-(5-Chloro-2-hydroxyphenyl)-1,2-dihydro-2-oxo-6-(trifluoromethyl)-3-quinolinyl]thio]acetyl]-4-methylpiperazine] | 14.4 | 422 | 
14 | O=C(CSc1c(-c2cc(Cl)ccc2O)c2cc(C(F)(F)F)ccc2[nH]c1=O)N1CCN(CCOCCO)CC1 [Example 98, 2-[2-[4-[[[4-(5-Chloro-2-hydroxyphenyl)-1,2-dihydro-2-oxo-6-(trifluoromethyl)-3-quinolinyl]thio]acetyl]-1-piperazinyl]ethoxy]ethanol] | 17 | 205 | 9
15 | O=C(CSc1c(-c2cc(Cl)ccc2O)c2cc(C(F)(F)F)ccc2[nH]c1=O)N1CCN(CCO)CC1 [Example 103, 4-[[[4-(5-Chloro-2-hydroxyphenyl)-1,2-dihydro-2-oxo-6-(trifluoromethyl)-3-quinolinyl]thio]acetyl]-1-piperazineethanol] | 22 | 151 | 22.5
16 | NC(=O)C1CCN(C(=O)CSc2c(-c3cc(Cl)ccc3O)c3cc(C(F)(F)F)ccc3[nH]c2=O)CC1 [Example 105, 1-[[[4-(5-Chloro-2-hydroxyphenyl)-1,2-dihydro-2-oxo-6-(trifluoromethyl)-3-quinolinyl]thio]acetyl]-4-piperidinecarboxamide] | 67 | 203 | 62
17 | CCOC(=O)CN1CCN(C(=O)CSc2c(-c3cc(Cl)ccc3O)c3cc(C(F)(F)F)ccc3[nH]c2=O)CC1 [Example 107, 4-[[[4-(5-Chloro-2-hydroxyphenyl)-1,2-dihydro-2-oxo-6-(trifluoromethyl)-3-quinolinyl]thio]acetyl]-1-piperazineacetic acid, ethyl ester] | 19 | 281 | 46
